Starred links: 1 amine or outer side, 2 acyl side, 3 side chain; linkers in the order of their positions; H or OH if unused. Non-standard residues stand in square brackets, D forms with d. Groups on a side chain read outwards from the residue. *: point of attachment. C18 diacid = O=C(O)CCCCCCCCCCCCCCCCC(=O)*; γGlu = O=C(O)[C@H](CCC(=O)[*:2])N[*:1]; αMe4Pal = C[C@](N)(Cc1ccncc1)C(=O)O; αMeY = C[C@](N)(Cc1ccc(O)cc1)C(=O)O; 4Pal = N[C@@H](Cc1ccncc1)C(=O)O; αMeL = CC(C)C[C@](C)(N)C(=O)O; AEEA = NCCOCCOCC(=O)O; Aib = CC(C)(N)C(=O)O
What was measured:
Format in all cases: cell-based
hGIPR [1] = molecular target: T1, hGIPR (Homo sapiens, UniProt P48546); test: Functional cAMP activity in the presence of 1% HSA; settings: read-out: cAMP Rel EC50, hGIPR
T1 sequence (P48546 22-466): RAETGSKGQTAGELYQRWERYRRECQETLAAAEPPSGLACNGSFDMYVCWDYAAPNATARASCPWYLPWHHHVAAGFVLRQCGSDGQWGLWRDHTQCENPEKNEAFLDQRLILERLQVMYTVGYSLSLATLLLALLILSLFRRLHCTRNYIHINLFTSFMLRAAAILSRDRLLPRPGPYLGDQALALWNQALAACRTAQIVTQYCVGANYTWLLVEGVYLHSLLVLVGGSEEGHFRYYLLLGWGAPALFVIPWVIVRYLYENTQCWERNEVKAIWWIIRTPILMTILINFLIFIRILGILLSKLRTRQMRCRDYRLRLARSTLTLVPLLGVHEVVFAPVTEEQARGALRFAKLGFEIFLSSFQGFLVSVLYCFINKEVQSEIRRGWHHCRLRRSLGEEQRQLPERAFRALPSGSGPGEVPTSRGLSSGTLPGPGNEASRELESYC

hGLP-1R [2] = molecular target: T2, hGLP-1R (Homo sapiens, UniProt P43220); test: Functional cAMP activity in the presence of 1% HSA; settings: read-out: cAMP Rel EC50, hGLP-1R
human GcgR = human GcgR (Homo sapiens, UniProt P47871); test: Functional cAMP activity in the presence of 1% HSA; settings: read-out: cAMP Rel EC50, hGcgR
hGIPR [3] = molecular target: T1, hGIPR; test: Functional cAMP activation in the presence of 0.1% casein (no HSA); settings: in the presence of 0.1% casein (no HSA); geometric mean; read-out: Relative cAMP EC50, hGIPR;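 as to Relative cAMP EC50, hGIPR: intracellular cAMP rise after 30 min at 37 °C read by HTRF against a standard curve, scaled between buffer alone (0%) and top control ligand concentration (100%), four-parameter fit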;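 as to Relative cAMP EC50, hGLP-1R: intracellular cAMP rise after 30 min at 37 °C read by HTRF, normalized between buffer only (0%) and maximal control ligand (100%), four-parameter variable-slope fit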;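 as to Relative cAMP EC50, hGcgR: intracellular cAMP rise after 30 min at 37 °C, read by HTRF against a cAMP standard curve, scaled from buffer only (0%) to maximal control ligand response (100%)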
hGLP-1R [4] = molecular target: T2, hGLP-1R; test: as above; settings: in the presence of 0.1% casein (no HSA); geometric mean; read-out: Relative cAMP EC50, hGLP-1R
hGcgR = hGcgR (Homo sapiens, UniProt P47871); test: as above; settings: in the presence of 0.1% casein (no HSA); geometric mean; read-out: Relative cAMP EC50, hGcgR;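 also: intracellular cAMP rise after 30 min at 37 °C, read by HTRF against a cAMP standard curve, scaled from buffer only (0%) to maximal control ligand response (100%)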
Sequence of hGcgR (P47871 26-477): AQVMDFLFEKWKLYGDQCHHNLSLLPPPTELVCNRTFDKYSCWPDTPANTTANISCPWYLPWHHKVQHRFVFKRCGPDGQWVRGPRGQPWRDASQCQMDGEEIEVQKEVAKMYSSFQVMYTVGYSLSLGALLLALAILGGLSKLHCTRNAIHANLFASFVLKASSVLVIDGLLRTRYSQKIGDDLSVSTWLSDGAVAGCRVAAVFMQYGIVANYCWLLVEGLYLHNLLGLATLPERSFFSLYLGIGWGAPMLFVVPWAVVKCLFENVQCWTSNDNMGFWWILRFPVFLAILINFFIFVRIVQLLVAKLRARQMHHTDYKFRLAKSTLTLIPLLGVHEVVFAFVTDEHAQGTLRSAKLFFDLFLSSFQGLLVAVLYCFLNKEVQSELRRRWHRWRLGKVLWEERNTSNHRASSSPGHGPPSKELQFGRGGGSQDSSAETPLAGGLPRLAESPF

T2 sequence (P43220 24-463): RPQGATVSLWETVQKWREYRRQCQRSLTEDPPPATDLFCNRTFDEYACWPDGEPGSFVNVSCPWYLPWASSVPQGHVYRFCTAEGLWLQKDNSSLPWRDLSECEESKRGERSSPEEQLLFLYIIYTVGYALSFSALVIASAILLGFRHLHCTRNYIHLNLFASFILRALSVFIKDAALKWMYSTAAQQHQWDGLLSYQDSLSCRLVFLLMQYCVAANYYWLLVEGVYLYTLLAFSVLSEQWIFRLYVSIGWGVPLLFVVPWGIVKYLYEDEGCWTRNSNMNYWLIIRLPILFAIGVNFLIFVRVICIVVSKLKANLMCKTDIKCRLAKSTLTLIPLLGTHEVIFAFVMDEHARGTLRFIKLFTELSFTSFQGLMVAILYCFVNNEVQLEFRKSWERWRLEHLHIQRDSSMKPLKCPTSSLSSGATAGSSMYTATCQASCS
Sequence of human GcgR (P47871 26-477): as the sequence (P47871 26-477) above

## H-Y[Aib]QGTFTSD[4Pal]SQ[αMeL]LDKK([AEEA-γGlu-C18 diacid])AQ[αMe4Pal]AFIE[αMe4Pal]LIEGGPSSGAPPPSGSEE-NH2 [Example 954]
hGIPR [1]
  EC50: 35.3 nM
hGLP-1R [2]
  EC50: 357 nM
Human GcgR
  EC50: 450 nM
hGIPR [3]
  EC50: 0.268 nM
hGLP-1R [4]
  EC50: 4.79 nM
hGcgR
  EC50: 3.66 nM

## H-Y[Aib]QGTFTSD[4Pal]SQ[αMeL]LDKK([AEEA-γGlu-C18 diacid])AQ[αMe4Pal]AFIE[αMe4Pal]LIE[Aib]GPSSGAPPPSGTE-NH2 [Example 1116]
hGIPR [1]
  EC50: 10.8 nM
hGLP-1R [2]
  EC50: 198 nM
Human GcgR
  EC50: 364 nM
hGIPR [3]
  EC50: 0.134 nM
hGLP-1R [4]
  EC50: 4.63 nM
hGcgR
  EC50: 8.2 nM

## H-Y[Aib]QGTFTSD[4Pal]SQ[αMeL]LDKK([AEEA-γGlu-C18 diacid])AQ[αMe4Pal]AFIE[αMe4Pal]LIE[Aib]GPSSGAPPPSGTGE-NH2 [Example 1117]
hGIPR [1]
  EC50: 8.31 nM
hGLP-1R [2]
  EC50: 237 nM
Human GcgR
  EC50: 355 nM
hGIPR [3]
  EC50: 0.124 nM
hGLP-1R [4]
  EC50: 3.51 nM
hGcgR
  EC50: 4.93 nM

## H-Y[Aib]QGTFTSD[4Pal]SQ[αMeL]LDKK([AEEA-γGlu-C18 diacid])AQ[αMe4Pal]AFIE[αMeY]LIEGGPSSGAPPPSGS-NH2 [Example 844]
hGIPR [1]
  EC50: 43.3 nM
hGLP-1R [2]
  EC50: 151 nM
Human GcgR
  EC50: 583 nM
hGIPR [3]
  EC50: 0.27 nM
hGLP-1R [4]
  EC50: 0.61 nM
hGcgR
  EC50: 2.83 nM

## H-Y[Aib]QGTFTSD[4Pal]SQ[αMeL]LDKK([AEEA-γGlu-C18 diacid])AQ[αMe4Pal]QFIE[αMeY]LIEGGPSSGAPPPSGS-NH2 [Example 855]
hGIPR [1]
  EC50: 46.1 nM
hGLP-1R [2]
  EC50: 207 nM
Human GcgR
  EC50: 1030 nM
hGIPR [3]
  EC50: 0.271 nM
hGLP-1R [4]
  EC50: 0.908 nM
hGcgR
  EC50: 2.67 nM

## H-Y[Aib]QGTFTSD[4Pal]SQ[αMeL]LDKK([AEEA-γGlu-γGlu-C18 diacid])AQ[αMe4Pal]AFIEWLIEGGPSSGAPPPSGS-NH2 [Example 871]
hGIPR [1]
  EC50: 35.4 nM
hGLP-1R [2]
  EC50: 230 nM
Human GcgR
  EC50: 2060 nM
hGIPR [3]
  EC50: 0.2 nM
hGLP-1R [4]
  EC50: 2.92 nM
hGcgR
  EC50: 12.6 nM

## H-Y[Aib]QGTFTSD[4Pal]SQ[αMeL]LDKK([AEEA-γGlu-γGlu-C18 diacid])AQ[αMe4Pal]AFIEYLIAGGPSSGEPPPSGS-NH2 [Example 947]
hGIPR [1]
  EC50: 16.6 nM
hGLP-1R [2]
  EC50: 150 nM
Human GcgR
  EC50: 727 nM
hGIPR [3]
  EC50: 0.289 nM
hGLP-1R [4]
  EC50: 1.7 nM
hGcgR
  EC50: 6.99 nM

## H-Y[Aib]QGTFTSD[4Pal]SQ[αMeL]LDKK([AEEA-γGlu-γGlu-C18 diacid])AQ[αMe4Pal]AFIEYLIE[Aib]GPSSGAPPPSGS-NH2 [Example 860]
hGIPR [1]
  EC50: 19.2 nM
hGLP-1R [2]
  EC50: 414 nM
Human GcgR
  EC50: 565 nM
hGIPR [3]
  EC50: 0.202 nM
hGLP-1R [4]
  EC50: 3.95 nM
hGcgR
  EC50: 11 nM

## H-Y[Aib]QGTFTSD[4Pal]SQ[αMeL]LDKK([Glu-Glu-γGlu-C18 diacid])AQ[αMe4Pal]AFIEYLIAGGPSSGAPPPSGE-NH2 [Example 1087]
hGIPR [1]
  EC50: 23.3 nM
hGLP-1R [2]
  EC50: 439 nM
Human GcgR
  EC50: 2460 nM
hGIPR [3]
  EC50: 0.207 nM
hGLP-1R [4]
  EC50: 2.63 nM
hGcgR
  EC50: 15.4 nM

## H-Y[Aib]QGTFTSD[4Pal]SQ[αMeL]LDKK([Glu-Glu-γGlu-C18 diacid])AQ[αMe4Pal]AFIEYLIAGGPSSGAPPPSGEEE-NH2 [Example 1090]
hGIPR [1]
  EC50: 27.3 nM
hGLP-1R [2]
  EC50: 619 nM
Human GcgR
  EC50: 2010 nM
hGIPR [3]
  EC50: 0.272 nM
hGLP-1R [4]
  EC50: 5.44 nM
hGcgR
  EC50: 15.6 nM

## H-Y[Aib]QGTFTSD[4Pal]SQ[αMeL]LDKK([Glu-γGlu-C18 diacid])AQ[αMe4Pal]AFIEYLIAGGPSSGAPPPSGEEE-NH2 [Example 1089]
hGIPR [1]
  EC50: 34.6 nM
hGLP-1R [2]
  EC50: 449 nM
Human GcgR
  EC50: 2580 nM
hGIPR [3]
  EC50: 0.213 nM
hGLP-1R [4]
  EC50: 2.96 nM
hGcgR
  EC50: 14 nM

## H-Y[Aib]QGTFTSD[4Pal]SQ[αMeL]LDKK([Glu-γGlu-C18 diacid])AQ[αMe4Pal]AFIEYLIAGGPSSGAPPPSGSEE-NH2 [Example 1030]
hGIPR [1]
  EC50: 21 nM
hGLP-1R [2]
  EC50: 385 nM
Human GcgR
  EC50: 1830 nM
hGIPR [3]
  EC50: 0.122 nM
hGLP-1R [4]
  EC50: 1.72 nM
hGcgR
  EC50: 9.42 nM

## H-Y[Aib]QGTFTSD[4Pal]SQ[αMeL]LDKK([Glu-γGlu-C18 diacid])AQ[αMe4Pal]AFIEYLIE[Aib]GPSSGAPPPSGS-NH2 [Example 894]
hGIPR [1]
  EC50: 30.9 nM
hGLP-1R [2]
  EC50: 711 nM
Human GcgR
  EC50: 2330 nM
hGIPR [3]
  EC50: 0.0752 nM
hGLP-1R [4]
  EC50: 2.01 nM
hGcgR
  EC50: 6.09 nM

## H-Y[Aib]QGTFTSD[4Pal]SQ[αMeL]LDKK([Glu-γGlu-Glu-C18 diacid])AQ[αMe4Pal]AFIEYLIE[Aib]GPSSGAPPPSGS-NH2 [Example 896]
hGIPR [1]
  EC50: 16.8 nM
hGLP-1R [2]
  EC50: 535 nM
Human GcgR
  EC50: 1110 nM
hGIPR [3]
  EC50: 0.12 nM
hGLP-1R [4]
  EC50: 4.64 nM
hGcgR
  EC50: 10.6 nM

Source: US20240270821A1, “GIP/GLP1/GCG TRI-RECEPTOR AGONISTS AND USES THEREOF” (priority 2023, published 2024)
